# Results taken from PubChem BioAssay (NCI).
#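 Method: 48-hour compound exposure of cells in 96-well plates, five concentrations, linear interpolation of endpoints. The concentration for 50% growth inhibition is given as GI50. TGI is the concentration that stops growth completely.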 Where a SMILES comes first, the peptide text is derived from it. [ ]: non-standard residue; d: D form. The star is where a group is joined. Lauroyl = CCCCCCCCCCCC(=O)*; Aib = CC(C)(N)C(=O)O; βAla = NCCC(=O)O
# Legend:
# Assay in all cases: NCI-60 cell line screen, 48 h
# [1] = test system: OVCAR-5 ovarian
# [2] = test system: MCF7 breast
# [3] = test system: RPMI-8226 leukemia
# [4] = test system: T-47D breast
# [5] = test system: SN12C renal
# [6] = test system: SK-MEL-28 melanoma
# [7] = test system: UACC-62 melanoma
# [8] = test system: KM12 colon
# [9] = test system: NCI/ADR-RES ovarian
# [10] = test system: M14 melanoma
# [11] = test system: K-562 leukemia
# [12] = test system: COLO 205 colon
# [13] = test system: LOX IMVI melanoma
# [14] = test system: HCT-116 colon
# [15] = test system: PC-3 prostate
# [16] = test system: SK-MEL-5 melanoma
# [17] = test system: DU-145 prostate
# [18] = test system: NCI-H23 lung
# [19] = test system: HOP-62 NSCLC
# [20] = test system: BT-549 breast
# [21] = test system: SK-OV-3 ovarian
# [22] = test system: EKVX NSCLC
# [23] = test system: UACC-257 melanoma
# [24] = test system: U251 CNS
# [25] = test system: SF-539 CNS
# [26] = test system: ACHN renal
# [27] = test system: A498 renal
# [28] = test system: OVCAR-8 ovarian
# [29] = test system: SNB-75 CNS
# [30] = test system: SW-620 colon
# [31] = test system: MDA-MB-435
# [32] = test system: IGROV1 ovarian
# [33] = test system: HOP-92 NSCLC
# [34] = test system: A549 NSCLC
# [35] = test system: NCI-H226 lung
# [36] = test system: SNB-19 CNS
# [37] = test system: CCRF-CEM leukemia
# [38] = test system: TK-10 renal
# [39] = test system: HCC-2998 colon
# [40] = test system: SR leukemia
# [41] = test system: 786-0 renal
# [42] = test system: RXF 393 renal
# [43] = test system: SF-295 CNS
# [44] = test system: HCT-15 colon
# [45] = test system: CAKI-1 renal
# [46] = test system: NCI-H522 lung
# [47] = test system: HS 578T breast
# [48] = test system: HT29 colon
# [49] = test system: UO-31 renal
# [50] = test system: MALME-3M melanoma
# [51] = test system: NCI-H460 lung
# [52] = test system: OVCAR-4 ovarian
# [53] = test system: OVCAR-3 ovarian
# [54] = test system: SF-268 CNS
# [55] = test system: MDA-MB-231 breast
# [56] = test system: SK-MEL-2 melanoma
structure (smiles),measurement,setting,value
CCCCCCCCCCCC(=O)NC(C)(C)C(=O)N1CCCC1C(=O)NC(C)(C)C(=O)NC(C)(C)C(=O)N1CCCC1C(=O)NC(C)(C)C(=O)NC(C)(C)C(=O)N1CCCC1C(=O)NC(C)C(=O)NCCC(=O)NC(C)C(=O)NC(C)(C)C(=O)NC(C)(C)C(=O)NC(C)(C)C(=O)NCCC(=O)NC(C)(C)C(=O)NC(C)(C)C(=O)NC(C)(C)C(=O)NC(C)C(=O)NCCC(=O)O (configuration not stated) (Lauroyl-[Aib]P[Aib][Aib]P[Aib][Aib]PA[βAla]A[Aib][Aib][Aib][βAla][Aib][Aib][Aib]A[βAla]-OH; configuration not given here),GI50,[1],467 nM
same,TGI,[1],1590 nM
same,GI50,[2],368 nM
same,TGI,[2],906 nM
same,GI50,[3],166 nM
same,TGI,[3],561 nM
same,GI50,[4],440 nM
same,TGI,[4],1440 nM
same,GI50,[5],296 nM
same,TGI,[5],672 nM
same,GI50,[6],437 nM
same,TGI,[6],1360 nM
same,GI50,[7],325 nM
same,TGI,[7],724 nM
same,GI50,[8],478 nM
same,TGI,[8],1320 nM
same,GI50,[9],370 nM
same,TGI,[9],833 nM
same,GI50,[10],387 nM
same,TGI,[10],1010 nM
same,GI50,[11],337 nM
same,TGI,[11],822 nM
same,GI50,[12],344 nM
same,TGI,[12],721 nM
same,GI50,[13],286 nM
same,TGI,[13],535 nM
same,GI50,[14],300 nM
same,TGI,[14],547 nM
same,GI50,[15],319 nM
same,TGI,[15],689 nM
same,GI50,[16],327 nM
same,TGI,[16],652 nM
same,GI50,[17],441 nM
same,TGI,[17],1110 nM
same,GI50,[18],303 nM
same,TGI,[18],583 nM
same,GI50,[19],325 nM
same,TGI,[19],683 nM
same,GI50,[20],151 nM
same,TGI,[20],383 nM
same,GI50,[21],325 nM
same,TGI,[21],623 nM
same,GI50,[22],349 nM
same,TGI,[22],790 nM
same,GI50,[23],387 nM
same,TGI,[23],1080 nM
same,GI50,[24],254 nM
same,TGI,[24],500 nM
same,GI50,[25],298 nM
same,TGI,[25],576 nM
same,GI50,[26],341 nM
same,TGI,[26],667 nM
same,GI50,[27],375 nM
same,TGI,[27],860 nM
same,GI50,[28],357 nM
same,TGI,[28],827 nM
same,GI50,[29],238 nM
same,TGI,[29],527 nM
same,GI50,[30],400 nM
same,TGI,[30],986 nM
same,GI50,[31],422 nM
same,TGI,[31],1040 nM
same,GI50,[32],377 nM
same,TGI,[32],1170 nM
same,GI50,[33],238 nM
same,TGI,[33],515 nM
same,GI50,[34],310 nM
same,TGI,[34],635 nM
same,GI50,[35],435 nM
same,TGI,[35],1230 nM
same,GI50,[36],423 nM
same,TGI,[36],1210 nM
same,GI50,[37],375 nM
same,TGI,[37],818 nM
same,GI50,[38],388 nM
same,TGI,[38],1180 nM
same,GI50,[39],533 nM
same,TGI,[39],1960 nM
same,GI50,[40],352 nM
same,TGI,[40],884 nM
same,GI50,[41],280 nM
same,TGI,[41],513 nM
same,GI50,[42],291 nM
same,TGI,[42],527 nM
same,GI50,[43],349 nM
same,TGI,[43],873 nM
same,GI50,[44],322 nM
same,TGI,[44],652 nM
same,GI50,[45],279 nM
same,TGI,[45],536 nM
same,GI50,[46],307 nM
same,TGI,[46],621 nM
same,GI50,[47],271 nM
same,TGI,[47],711 nM
same,GI50,[48],480 nM
same,TGI,[48],1350 nM
same,GI50,[49],669 nM
same,TGI,[49],1700 nM
same,GI50,[50],346 nM
same,TGI,[50],796 nM
same,GI50,[51],310 nM
same,TGI,[51],577 nM
same,GI50,[52],296 nM
same,TGI,[52],545 nM
same,GI50,[53],444 nM
same,TGI,[53],1130 nM
same,GI50,[54],404 nM
same,TGI,[54],1100 nM
same,GI50,[55],344 nM
same,TGI,[55],780 nM
same,GI50,[56],345 nM
same,TGI,[56],765 nM
